Results as given in patent US6355799B1, “Substituted benzene compounds, process for their preparation, and herbicidal and defoliant compositions containing them” (ISK Americas Incorporated, priority 1997, dated 2002).

Key:
Type in all cases: in vivo
[1] = tested on: redroot pigweed (Amaranthus retroflexus, AMARE); experiment: Pre-emerge test, greenhouse herbicide activity screening; conditions: pre-emerge, 14 days after application, rating scale 0-100
In short: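 Compounds in acetone were track-sprayed at 187 l/ha, 15–1000 g ai/ha, onto sandy loam pots. Pre-emerge seeds were sown one day before spraying, with surface watering afterwards. Post-emerge plants were at the 2–3 leaf stage and sprayed with 0.25% v/v non-ionic surfactant. Injury was rated 0–100 at 14 days.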

[2] = tested on: barnyardgrass (Echinochloa crus-galli, ECHCG); experiment: as above; conditions: pre-emerge, 14 days after application, rating scale 0-100
In short: (§1)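 Fourteen days after spraying, crop and weed injury was graded visually from 0, no effect, to 100, every plant dead. Test substances were dissolved in acetone and applied at 15–1000 g ai/ha with a flat-fan nozzle. Application was either pre-emergence, one day after sowing, or post-emergence at the 2–3 leaf stage.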

[3] = tested on: common ragweed (Ambrosia artemisizfolia L., AMBEL); experiment: as above; conditions: pre-emerge, 14 days after application, rating scale 0-100
In short: as §1

[4] = tested on: green foxtail (Setaria viridis, SETVI); experiment: as above; conditions: pre-emerge, 14 days after application, rating scale 0-100
In short: as §1

[5] = tested on: ivyleaf morningglory (Ipomoea hederacea, IPOHE); experiment: as above; conditions: pre-emerge, 14 days after application, rating scale 0-100
In short: as §1

[6] = tested on: johnsongrass (Sorghum halepense, SORHA); experiment: as above; conditions: pre-emerge, 14 days after application, rating scale 0-100
In short: as §1

[7] = tested on: lambsquarters (Chenopodium album, CHEAL); experiment: as above; conditions: pre-emerge, 14 days after application, rating scale 0-100
In short: as §1

[8] = tested on: large crabgrass (Digitaria sanguinalis, DIGSA); experiment: as above; conditions: pre-emerge, 14 days after application, rating scale 0-100
In short: as §1

[9] = tested on: sicklepod (Cassia obtusifolia, CASOB); experiment: as above; conditions: pre-emerge, 14 days after application, rating scale 0-100
In short: as §1

[10] = tested on: velvetleaf (Abutilon theophrasti, ABUTH); experiment: as above; conditions: pre-emerge, 14 days after application, rating scale 0-100
In short: as §1

[11] = tested on: field corn (Zea mays L., var. Dekalb 535, CORN); experiment: Pre-emerge test, crop safety; conditions: pre-emerge, 14 days after application, rating scale 0-100
In short: (§2)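 Rating: 0–100 visual injury, 14 DAA. Application: acetone, 187 l/ha, 15–1000 g ai/ha, flat-fan track sprayer with nozzle 40–45 cm above soil or canopy. Post-emerge runs used 0.25% v/v surfactant on 2–3 leaf plants.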

[12] = tested on: upland rice (Oryza sp., var. Tebonnet, RICE); experiment: Pre-emerge test, crop safety; conditions: pre-emerge, 14 days after application, rating scale 0-100
In short: as §2

[13] = tested on: barnyardgrass (Echinochloa crus-galli, ECHCG); experiment: Post-emerge test, greenhouse herbicide activity screening; conditions: post-emerge, 14 days after application, rating scale 0-100
In short: (§3)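 Applied at 15–1000 g ai/ha from acetone in 187 l/ha spray volume. Post-emergence applications included 0.25% v/v non-ionic surfactant and reached plants sown 8–21 days before. Pre-emergence applications were incorporated by surface watering. Efficacy or crop damage was rated on a 0–100 scale after 14 days.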

[14] = tested on: common ragweed (Ambrosia artemisizfolia L., AMBEL); experiment: as above; conditions: post-emerge, 14 days after application, rating scale 0-100
In short: as §3

[15] = tested on: green foxtail (Setaria viridis, SETVI); experiment: as above; conditions: post-emerge, 14 days after application, rating scale 0-100
In short: as §3

[16] = tested on: ivyleaf morningglory (Ipomoea hederacea, IPOHE); experiment: as above; conditions: post-emerge, 14 days after application, rating scale 0-100
In short: as §3

[17] = tested on: lambsquarters (Chenopodium album, CHEAL); experiment: as above; conditions: post-emerge, 14 days after application, rating scale 0-100
In short: as §3

[18] = tested on: large crabgrass (Digitaria sanguinalis, DIGSA); experiment: as above; conditions: post-emerge, 14 days after application, rating scale 0-100
In short: as §3

[19] = tested on: redroot pigweed (Amaranthus retroflexus, AMARE); experiment: as above; conditions: post-emerge, 14 days after application
In short: as §3

[20] = tested on: sicklepod (Cassia obtusifolia, CASOB); experiment: as above; conditions: post-emerge, 14 days after application, rating scale 0-100
In short: as §3

[21] = tested on: velvetleaf (Abutilon theophrasti, ABUTH); experiment: as above; conditions: post-emerge, 14 days after application, rating scale 0-100
In short: as §3

[22] = tested on: field corn (Zea mays L., var. Dekalb 535, CORN); experiment: Post-emerge test, crop safety; conditions: post-emerge, 14 days after application, rating scale 0-100
In short: as §1

[23] = tested on: upland rice (Oryza sp., var. Tebonnet, RICE); experiment: Post-emerge test, crop safety; conditions: post-emerge, 14 days after application, rating scale 0-100
In short: as §1

CCOc1c(Cl)cc(F)c(-n2c(=O)cc(C(F)(F)F)n(C)c2=O)c1Cl [14-62]
40: phytotoxicity rating AMARE ([1]; 63 g ai/ha) | Post-emerge Herbicidal Activity AMBEL (phytotoxicity rating) ([14]; 63 g ai/ha) | Post-emerge Herbicidal Activity ABUTH (phytotoxicity rating) ([21]; 63 g ai/ha)
30: phytotoxicity rating AMBEL ([3]; 250 g ai/ha) | Post-emerge Herbicidal Activity AMBEL (phytotoxicity rating) ([14]; 250 g ai/ha) | Post-emerge Herbicidal Activity IPOHE (phytotoxicity rating) ([16]; 63 g ai/ha) | Post-emerge Herbicidal Activity AMARE (phytotoxicity rating) ([19]; 63 g ai/ha, rating scale 0-100 (0 no damage, 100 complete death)) | Post-emerge Herbicidal Activity CASOB (phytotoxicity rating) ([20]; 250 g ai/ha)
5: phytotoxicity rating CORN ([11]; 250 g ai/ha) | Post-emerge Herbicidal Activity CORN (crop damage rating) ([22]; 63 g ai/ha) | Post-emerge Herbicidal Activity CORN (crop damage rating) ([22]; 250 g ai/ha) | Post-emerge Herbicidal Activity RICE (crop damage rating) ([23]; 250 g ai/ha)
20: phytotoxicity rating ECHCG ([2]; 250 g ai/ha) | phytotoxicity rating CHEAL ([7]; 63 g ai/ha) | Post-emerge Herbicidal Activity CHEAL (phytotoxicity rating) ([17]; 250 g ai/ha)
80: phytotoxicity rating CHEAL ([7]; 250 g ai/ha)
15: phytotoxicity rating ABUTH ([10]; 63 g ai/ha) | phytotoxicity rating RICE ([12]; 250 g ai/ha)
60: phytotoxicity rating SETVI ([4]; 250 g ai/ha) | phytotoxicity rating SORHA ([6]; 250 g ai/ha) | Post-emerge Herbicidal Activity ABUTH (phytotoxicity rating) ([21]; 250 g ai/ha)
0: phytotoxicity rating ECHCG ([2]; 63 g ai/ha) | phytotoxicity rating AMBEL ([3]; 63 g ai/ha) | phytotoxicity rating SETVI ([4]; 63 g ai/ha) | phytotoxicity rating IPOHE ([5]; 63 g ai/ha) | phytotoxicity rating IPOHE ([5]; 250 g ai/ha) | phytotoxicity rating SORHA ([6]; 63 g ai/ha) | phytotoxicity rating DIGSA ([8]; 63 g ai/ha) | phytotoxicity rating CASOB ([9]; 63 g ai/ha) | phytotoxicity rating CASOB ([9]; 250 g ai/ha) | phytotoxicity rating CORN ([11]; 63 g ai/ha) | phytotoxicity rating RICE ([12]; 63 g ai/ha) | Post-emerge Herbicidal Activity ECHCG (phytotoxicity rating) ([13]; 63 g ai/ha) | Post-emerge Herbicidal Activity ECHCG (phytotoxicity rating) ([13]; 250 g ai/ha) | Post-emerge Herbicidal Activity SETVI (phytotoxicity rating) ([15]; 63 g ai/ha) | Post-emerge Herbicidal Activity SETVI (phytotoxicity rating) ([15]; 250 g ai/ha) | Post-emerge Herbicidal Activity DIGSA (phytotoxicity rating) ([18]; 63 g ai/ha) | Post-emerge Herbicidal Activity DIGSA (phytotoxicity rating) ([18]; 250 g ai/ha) | Post-emerge Herbicidal Activity CASOB (phytotoxicity rating) ([20]; 63 g ai/ha) | Post-emerge Herbicidal Activity RICE (crop damage rating) ([23]; 63 g ai/ha)
10: Post-emerge Herbicidal Activity CHEAL (phytotoxicity rating) ([17]; 63 g ai/ha)
100: phytotoxicity rating AMARE ([1]; 250 g ai/ha)
50: phytotoxicity rating DIGSA ([8]; 250 g ai/ha) | Post-emerge Herbicidal Activity IPOHE (phytotoxicity rating) ([16]; 250 g ai/ha) | Post-emerge Herbicidal Activity AMARE (phytotoxicity rating) ([19]; 250 g ai/ha, rating scale 0-100)
95: phytotoxicity rating ABUTH ([10]; 250 g ai/ha)
